{
  "source": "patent US11945782B2",
  "about": "“Composition and methods of use of tetrahydroisoquinoline small molecules to bind and modulate PCSK9 protein activity” (SRX CARDIO, LLC, priority 2015, dated 2024)",
  "key": {"[1]": {"biological_target": "T1, recombinant PCSK9 (Homo sapiens, UniProt Q8NBP7)", "T1 sequence (Q8NBP7 153-692)": "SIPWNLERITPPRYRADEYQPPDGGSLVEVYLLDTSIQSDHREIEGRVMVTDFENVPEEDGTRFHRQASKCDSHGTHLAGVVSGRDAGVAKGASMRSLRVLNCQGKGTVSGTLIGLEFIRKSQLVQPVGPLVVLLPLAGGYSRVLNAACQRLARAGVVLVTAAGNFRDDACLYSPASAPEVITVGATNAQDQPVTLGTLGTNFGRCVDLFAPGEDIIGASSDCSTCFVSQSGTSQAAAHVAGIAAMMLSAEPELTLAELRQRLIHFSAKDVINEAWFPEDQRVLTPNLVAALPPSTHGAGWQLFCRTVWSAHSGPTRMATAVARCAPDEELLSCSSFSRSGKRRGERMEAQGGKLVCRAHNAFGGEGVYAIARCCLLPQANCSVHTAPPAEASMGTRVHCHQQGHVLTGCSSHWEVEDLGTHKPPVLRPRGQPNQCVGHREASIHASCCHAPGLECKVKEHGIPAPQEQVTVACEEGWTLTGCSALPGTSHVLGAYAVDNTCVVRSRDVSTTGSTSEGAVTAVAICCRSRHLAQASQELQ", "assay": "DiI-LDL Uptake Assay in HepG2 cells with recombinant PCSK9", "assay_type": "cell-based", "details": "2.5 ug/mL PCSK9, read-out: Uptake Assay: % Inhibition of 2.5 ug/mL recombinant PCSK9 @ X compound dose; for inhibition at 0.313 µM: 0.313 uM compound; for inhibition at 10 µM: 10 uM compound; for inhibition at 1.25 µM: 1.25 uM compound", "method": "(§1) The cells were incubated in a 96-well plate for a total of 16 h in the absence or presence of recombinant PCSK9 (final concentration 2.5 ug/ml) protein alone or recombinant PCSK9 protein pre-mixed with indicated concentration of experimental compounds (Cmpd #). After 16 h, DiI-LDL (final concentration 5 ug/ml) was added to the incubation mixtures. After 4 h, cells are stained with Hoechst 33342 for 30 minutes, then rinsed with phosphate buffered saline, and then a final volume of 100 ul phosphate buffered saline was added to each well. The fluorescence was measured (DiI: excitation at 550 nm and emission at 590 nm; Hoechst: excitation at 355 nm, emission at 460 nm). […] The cells were incubated in 24-well plates for a total of 6 h in the absence or presence of recombinant PCSK9 protein (final concentration of 5.0 ug/ml), or in the presence of PCSK9 protein mixed with indicated concentration of experimental compound (Cmpd #). After 6 hours, the cells were released from the plate, stained with anti-LDLR antibody, then rinsed, counterstained with DAN, and then measured by fluorescence activated cell sorting (FACS). The percent recombinant PCSK9 inhibition was calculated as [‘Compound Dose LDLR Fluorescence’-‘5.0 ug/ml PCSK9-treated LDLR Fluorescence’]/[‘PCSK9 Basal LDLR Fluorescence’-‘5.0 ug/ml PCSK9-treated LDLR Fluorescence’]×100%.\nCellular DiI-LDL uptake can be measured using protocols adapted from Benjannet et al., “Effects of the prosegment and pH on the activity of PCSK9: evidence for additional processing events” J Biol Chem. 285(52): 40965-40978 (2010) and “Composition and Methods of Use of Small Molecules as Binding Ligands for the Modulation of Proprotein Convertase Subtilisin/Kexin Type 9 (PCSK9) Protein Activity” (WO2016029037), which are incorporated by reference in their entirety.\nCells, such as HepG2, HuH7, FL83B, or a cell line transfected with a short-hairpin PCSK9 knockdown sequence such as HepG2/shPCSK9, HuH7/shPCSK9, or FL83B/shPCSK9 are plated and cultured at 37° C. for 12-24 h. Culture media is removed and replaced with fresh lipoprotein-depleted culture media supplemented with 5 ug/mL of DiI-LDL (Kalen Biomedical) or lipoprotein-depleted culture media supplemented with 5 ug/mL of Dil-LDL plus a predetermined concentration of recombinant PCSK9, for example a 10 nM final concentration of PCSK9. Lipoprotein-depleted culture media can be composed of DMEM (Invitrogen) with 10% lipoprotein-depleted fetal bovine serum (Kalen Biomedical) and supplemented with penicillin-streptomycin (Life Technologies). Cells are dosed with small molecule test compounds at doses ranging from 0 nM to 100 uM.\nFollowing an incubation period of specified length, such as 6 hours, Hoechst 33342 (AnaSpec) stain is added to the cell media per manufacturer's instructions and incubated for a specified length (e.g., 30 minutes). The lipoprotein-depleted media is removed and cells rinsed three times with phosphate buffered saline. A final volume of phosphate buffered saline is added back to the wells. The DiI fluorescence is measured with a plate reader using an exciting wavelength of 550 nm and the resulting emission at 590 nm is measured. The Hoechst stain fluorescence is measured with a plate reader using an exciting wavelength of 355 nm and the resulting emission at 460 nm is measured.\nCells are analyzed by for both Hoechst stain (DNA content) and DiI-LDL fluorescence. Cells incubated with small molecule compounds that are inhibitors of PCSK9 will be expected to show increased amounts of DiI-LDL fluorescence, relative to control (no compound) specimens, and cells incubated with small molecule compounds that are activators of PCSK9 will be expected to show decreased amounts of DiI-LDL fluorescence relative to control (no compound) specimens."}, "[2]": {"biological_target": "T1, recombinant PCSK9", "assay": "LDLR FACS (flow) Assay in HuH7 cells with recombinant PCSK9", "assay_type": "cell-based", "details": "5.0 ug/mL PCSK9, read-out: LDLR Flow Assay: % Inhibition of 5.0 ug/mL recombinant PCSK9 @ X compound dose; for inhibition at 5 µM: Huh-7, 5 uM compound", "method": "as §1\nLDLR levels can be measured using flow cytometry or fluorescence activated cell sorting (FACS) using protocols adapted from Benjannet et al., “Effects of the prosegment and pH on the activity of PCSK9: evidence for additional processing events” J Biol Chem. 285(52): 40965-40978 (2010) and “Composition and Methods of Use of Small Molecules as Binding Ligands for the Modulation of Proprotein Convertase Subtilisin/Kexin Type 9 (PCSK9) Protein Activity” (WO2016029037), which are incorporated by reference in their entirety.\nCells, such as HepG2, HuH7, FL83B, or a cell line transfected with a short-hairpin PCSK9 knockdown sequence such as HepG2/shPCSK9, HuH7/shPCSK9, or FL,83B/shPCSK9 are plated and cultured at 37° C. for 12-24 h. Culture media is removed and replaced with fresh culture media or culture media plus a predetermined amount of recombinant PCSK9, for example a 10 nM final concentration of PCSK9. Cell culture media can be composed of DMEM (Invitrogen) with 10% fetal bovine serum (Life Technologies) supplemented with penicillin-streptomycin (Life Technologies). Cells are dosed with small molecule test compounds at doses ranging from 0 nM to 100 uM\nFollowing an incubation period of specified length, such as 6 hours, the media is removed and the cells are rinsed three times with a rinse solution (i.e., Dulbecco's phosphate buffered saline (D-PBS, Life Technologies) supplemented with 0.5% bovine serum albumin (BSA, Sigma) and 1 g/L glucose (Sigma)). The fluid is then removed, and cells are released from the plate using TrypLE Express (Life Technologies) per manufacturer's recommend procedures, such as incubation for 5-10 minutes at 37° C. The TyrpLE-Cell suspension is then transferred to 15 mL conical tubes, volume is increased to 2 mL with D-PBS supplemented with 0.5% BSA and […] glucose, and the tubes are centrifuged at 250× gravity for 10 minutes. Following centrifugation, the supernatant is aspirated and the cell pellet is resuspended in 100 uL D-PBS containing 0.5% BSA and […] glucose, and cells are labeled with anti-LDLR antibody per the manufacturer's recommended procedure. The cells are then pelleted by centrifugation, resuspended in 300 uL PBS and counterstained with 4′,6-Diamidino-2-phenylindole (DAPI, Cayman Chemical) as a cell viability marker, other cell viability markers such as 7-aminoactinomycin D (7AAD, Life Technologies) have also been described in the art.\nCells are analyzed for both cell viability marker (dead cells) and LDLR in live cells using a flow cytometer per the manufacturer's operating manual. […]"}},
  "data": [
    {"smiles": "c1ccc(-c2ccc3c(c2)CNCC3)cc1", "note": "[Compound 1, 7-phenyl-1,2,3,4-tetrahydroisoquinoline]", "values": [
      {"measurement": "inhibition at 0.313 µM", "setting": "[1]", "value": "~45", "unit": "%"},
      {"measurement": "inhibition at 10 µM", "setting": "[1]", "value": "> 100", "unit": "%"},
      {"measurement": "inhibition at 0.625 µM", "setting": "[2]; Huh-7, 0.625 uM compound", "value": "~10", "unit": "%"},
      {"measurement": "inhibition at 1.25 µM", "setting": "[2]; Huh-7, 1.25 uM compound", "value": "~15", "unit": "%"},
      {"measurement": "inhibition at 20 µM", "setting": "[2]; Huh-7, 20 uM compound", "value": "~20", "unit": "%"}
    ]},
    {"smiles": "Cc1cc2c(cc1-c1ccccc1F)CNCC2", "note": "[Compound 2, 7-(2-fluorophenyl)-6-methyl-1,2,3,4-tetrahydroisoquinoline]", "values": [
      {"measurement": "inhibition at 0.313 µM", "setting": "[1]", "value": "~50", "unit": "%"},
      {"measurement": "inhibition at 10 µM", "setting": "[1]", "value": "> 100", "unit": "%"},
      {"measurement": "inhibition at 5 µM", "setting": "[2]", "value": "~19", "unit": "%"}
    ]},
    {"smiles": "Cc1cc(-c2ccccc2F)cc2c1CCNC2", "note": "[Compound 3, 7-(2-fluorophenyl)-5-methyl-1,2,3,4-tetrahydroisoquinoline]", "values": [
      {"measurement": "inhibition at 1.25 µM", "setting": "[1]", "value": "~42", "unit": "%"},
      {"measurement": "inhibition at 10 µM", "setting": "[1]", "value": "> 100", "unit": "%"}
    ]},
    {"smiles": "Cc1cc(-c2ccccc2F)cc2c1CCNC2=O", "note": "[Compound 4, 7-(2-fluorophenyl)-5-methyl-3,4-dihydroisoquinolin-1(2H)-one]", "values": [
      {"measurement": "inhibition at 20 µM", "setting": "[1]; 20 µM compound", "value": "~18", "unit": "%"},
      {"measurement": "inhibition at 5 µM", "setting": "[2]", "value": "~10", "unit": "%"}
    ]},
    {"smiles": "Cc1cc2c(cc1-c1ccccc1F)C(=O)NCC2", "note": "[Compound 5, 7-(2-fluorophenyl)-6-methyl-3,4-dihydroisoquinolin-1(2H)-one]", "values": [
      {"measurement": "inhibition at 1.25 µM", "setting": "[1]", "value": "~33", "unit": "%"},
      {"measurement": "inhibition at 10 µM", "setting": "[2]; Huh-7, 10 uM compound", "value": "~10", "unit": "%"}
    ]}
  ]
}
